# Test results as given in ChEMBL document CHEMBL1799917, “Isolation, sequencing, and structure-activity relationships of cyclotides” (J Nat Prod, 2010).
# Where a SMILES comes first, the peptide text is derived from it. Bridges are numbered along the chain shown (N, C = ends). [ ]: non-standard residue; d: D form. aThr = C[C@H](O)[C@H](N)C(=O)O
# Experiments:
# Kluyveromyces marxianus = experiment: Antimicrobial activity against Candida kefyr ATCC 37095; type: functional
# [1] = Hemolytic activity in human type A RBC; type: ADME, cell-based, Erythrocyte; conditions: human type A red blood cells, read-out: HD50 (the source's name)
# Pseudomonas aeruginosa = experiment: Antimicrobial activity against Pseudomonas aeruginosa ATCC 27853; type: functional
# Escherichia coli = experiment: Antimicrobial activity against Escherichia coli ATCC 25922; type: functional
# Proteus vulgaris = experiment: Antimicrobial activity against Proteus vulgaris ATCC 49132; type: functional
# Staphylococcus aureus = experiment: Antimicrobial activity against Staphylococcus aureus ATCC 29213; type: functional
# Klebsiella oxytoca = experiment: Antimicrobial activity against Klebsiella oxytoca ATCC 49131; type: functional
# Candida tropicalis = experiment: Antimicrobial activity against Candida tropicalis ATCC 37097; type: functional
# R1 = experiment: Cytotoxicity against mouse R1 cells after 72 hrs by fluorometric microculture cytotoxicity assay; type: cell-based; conditions: R1, 72 h
# CEM-SS (Homo sapiens) = experiment: Cytotoxicity against human CEM-SS cells
# [2] = Hemolytic activity in human type A RBC assessed as concentration required to cause 11% hemolysis after 1 hr by microtitre plate; type: ADME, cell-based; conditions: erythrocyte
# CCRF-CEM = experiment: Cytotoxicity against human CCRF-CEM cells after 72 hrs by fluorometric microculture cytotoxicity assay; type: functional, cell-based
# U-937/GTB = experiment: Cytotoxicity against human U937/GTB cells after 72 hrs by fluorometric microculture cytotoxicity assay; type: functional, cell-based
# [3] = Cytotoxicity against human 8226/LR-5 cells after 72 hrs by fluorometric microculture cytotoxicity assay; type: functional, cell-based
# ACHN = experiment: Cytotoxicity against human ACHN cells after 72 hrs by fluorometric microculture cytotoxicity assay; type: functional, cell-based
# [4] = Cytotoxicity against human CEM/VM1 cells after 72 hrs by fluorometric microculture cytotoxicity assay; type: functional, cell-based; conditions: CEM-VM1, 72 h
# U-937 = experiment: Cytotoxicity against human vincristine-resistant U937 cells after 72 hrs by fluorometric microculture cytotoxicity assay; type: functional, cell-based; conditions: U-937, 72 h
# RPMI-8226 = experiment: Cytotoxicity against human RPMI8226/S cells after 72 hrs by fluorometric microculture cytotoxicity assay; type: functional, cell-based
# [5] = Cytotoxicity against human 8226/DOX40 cells after 72 hrs by fluorometric microculture cytotoxicity assay; type: functional, cell-based
# [6] = Hemolytic activity in human RBC; type: ADME, cell-based, Erythrocyte; conditions: human red blood cells, read-out: HD50 (the source's name)
# [7] = test system: Human immunodeficiency virus 1; experiment: Antiviral activity against HIV1 infected in human CEM-SS cells assessed as protection against virus-induced cytopathic effect by XTT method; type: functional, organism-based; conditions: Human immunodeficiency virus 1, CEM-SS
structure (smiles),measurement,setting,value
CC[C@H](C)[C@@H]1NC(=O)[C@@H]2CCCN2C(=O)[C@H](CS)NC(=O)CNC(=O)[C@H](CCC(=O)O)NC(=O)[C@H](CO)NC(=O)[C@H](CS)NC(=O)[C@H](C(C)C)NC(=O)[C@H](Cc2ccccc2)NC(=O)[C@H]([C@@H](C)CC)NC(=O)[C@@H]2CCCN2C(=O)[C@H](CS)NC(=O)[C@H]([C@H](C)O)NC(=O)[C@H](C(C)C)NC(=O)[C@H]([C@H](C)O)NC(=O)[C@H](C)NC(=O)[C@H](CC(C)C)NC(=O)[C@H](CC(C)C)NC(=O)CNC(=O)[C@H](CS)NC(=O)[C@H](CO)NC(=O)[C@H](CS)NC(=O)[C@H](CCCCN)NC(=O)[C@H](CO)NC(=O)[C@H](CCCCN)NC(=O)[C@H](C(C)C)NC(=O)[C@H](CS)NC(=O)[C@H](Cc2ccc(O)cc2)NC(=O)[C@H](CCCCN)NC(=O)[C@H](CC(N)=O)NC(=O)[C@H](CO)NC1=O [CYCLOPSYCHOTRIDE A] (cyclo(A[aThr]V[aThr]CPIFVCSEGCPISNKYCVKSKCSCGLL)),MIC,Kluyveromyces marxianus,14 µM
same,HC50,[1],405 µM
same,MIC,Pseudomonas aeruginosa,13.5 µM
same,MIC,Escherichia coli,1.55 µM
same,MIC,Proteus vulgaris,13.2 µM
same,MIC,Staphylococcus aureus,39 µM
same,MIC,Klebsiella oxytoca,5.8 µM
same,MIC,Candida tropicalis,56.5 µM
"CC[C@H](C)[C@@H]1NC(=O)[C@@H]2CSSC[C@@H]3NC(=O)[C@H](C(C)C)NC(=O)[C@H](CCCCN)NC(=O)[C@H](CC(N)=O)NC(=O)[C@H](CCCCN)NC(=O)[C@@H]4CSSC[C@H](NC(=O)[C@H](CO)NC(=O)[C@H](CCC(=O)O)NC(=O)CNC(=O)[C@H](CSSC[C@H](NC(=O)CNC(=O)[C@H](CC(C)C)NC(=O)[C@H](CC(C)C)NC(=O)[C@H]([C@@H](C)O)NC(=O)[C@H](CO)NC1=O)C(=O)N[C@@H](CO)C(=O)N4)NC(=O)[C@@H]1CCCN1C(=O)[C@H]([C@@H](C)CC)NC(=O)[C@H](C(C)C)NC(=O)CNC(=O)[C@H](CC(N)=O)NC(=O)[C@H](CCCNC(=N)N)NC(=O)[C@H](Cc1ccc(O)cc1)NC3=O)C(=O)N[C@@H](C(C)C)C(=O)N[C@@H](Cc1ccccc1)C(=O)N[C@@H]([C@@H](C)CC)C(=O)N1CCC[C@H]1C(=O)N2 [CIRCULIN B] (cyclo(CGESCVFIPCISTLLGCSCKNKVCYRNGVIP); disulfide 1-17, 5-19, 10-24)",IC50,R1,820000 nM
same,MIC,Kluyveromyces marxianus,29 µM
same,HC50,[1],550 µM
same,MIC,Pseudomonas aeruginosa,25.5 µM
same,IC50,CEM-SS (Homo sapiens),500 nM
same,MIC,Escherichia coli,0.41 µM
same,MIC,Proteus vulgaris,6.8 µM
same,MIC,Staphylococcus aureus,13.5 µM
same,MIC,Klebsiella oxytoca,8.2 µM
"CC[C@H](C)[C@@H]1NC(=O)[C@H](CO)NC(=O)CNC(=O)[C@H](CC(N)=O)NC(=O)[C@H](CCCCN)NC(=O)[C@H](C)NC(=O)[C@@H]2CSSC[C@@H]3NC(=O)[C@H](CCCCN)NC(=O)CNC(=O)[C@H](C)NC(=O)[C@H](Cc4ccccc4)NC(=O)[C@@H]4CSSC[C@H](NC(=O)[C@H](CO)NC(=O)[C@H](CSSC[C@H](NC(=O)[C@H](C)NC(=O)[C@@H]5CCCN5C1=O)C(=O)NCC(=O)N[C@@H](CCC(=O)O)C(=O)N[C@@H](CO)C(=O)N4)NC(=O)CNC(=O)[C@@H]1CCCN1C(=O)[C@H]([C@@H](C)O)NC(=O)[C@H](Cc1ccc(O)cc1)NC3=O)C(=O)N[C@@H](CO)C(=O)N[C@@H](CCCCN)C(=O)N[C@@H](Cc1ccc(O)cc1)C(=O)N1CCC[C@H]1C(=O)N[C@@H](CC(C)C)C(=O)N2 [CYCLOVIOLACIN O14] (cyclo(ACGESCFAGKCYTPGCSCSKYPLCAKNGSIP); disulfide 2-16, 6-18, 11-24)",Activity,[2],25 µM
"CC[C@H](C)[C@@H]1NC(=O)[C@@H]2CCCN2C(=O)[C@H](C(C)C)NC(=O)CNC(=O)[C@H](CC(N)=O)NC(=O)[C@H](CCCNC(=N)N)NC(=O)[C@H]([C@@H](C)O)NC(=O)[C@@H]2CSSC[C@@H]3NC(=O)[C@H]([C@@H](C)O)NC(=O)CNC(=O)[C@H](CC(C)C)NC(=O)[C@H]([C@@H](C)O)NC(=O)[C@@H]4CSSC[C@H](NC(=O)[C@H](CO)NC(=O)[C@H](CSSC[C@H](NC1=O)C(=O)NCC(=O)N[C@@H](CCC(=O)O)C(=O)N[C@@H]([C@@H](C)O)C(=O)N4)NC(=O)CNC(=O)[C@H](C)NC(=O)[C@H]([C@@H](C)O)NC(=O)[C@H](Cc1ccc(O)cc1)NC3=O)C(=O)N[C@@H](CO)C(=O)N[C@@H](Cc1c[nH]c3ccccc13)C(=O)N1CCC[C@H]1C(=O)N[C@@H](C(C)C)C(=O)N2 (cyclo(AGCSCSWPVCTRNGVPICGETCTLGTCYT); disulfide 3-18, 5-22, 10-27)",IC50,R1,2630 nM
same,IC50,CCRF-CEM,2630 nM
same,IC50,U-937/GTB,2630 nM
same,IC50,[3],2630 nM
same,IC50,ACHN,2630 nM
same,IC50,[4],2630 nM
same,IC50,U-937,2630 nM
same,IC50,RPMI-8226,2630 nM
same,IC50,[5],2630 nM
CC(C)C[C@@H]1NC(=O)CNC(=O)[C@H](CC(N)=O)NC(=O)[C@H](CCCNC(=N)N)NC(=O)[C@H]([C@@H](C)O)NC(=O)[C@@H]2CSSC[C@@H]3NC(=O)[C@H]([C@@H](C)O)NC(=O)CNC(=O)CNC(=O)[C@H](C(C)C)NC(=O)[C@@H]4CSSC[C@H](NC(=O)[C@H](CO)NC(=O)[C@H](CSSC[C@H](NC(=O)[C@H](C(C)C)NC(=O)[C@@H]5CCCN5C1=O)C(=O)NCC(=O)N[C@@H](CCC(=O)O)C(=O)N[C@@H]([C@@H](C)O)C(=O)N4)NC(=O)CNC(=O)[C@@H]1CCCN1C(=O)[C@H]([C@@H](C)O)NC(=O)[C@H](CC(N)=O)NC3=O)C(=O)N[C@@H](CO)C(=O)N[C@@H](Cc1c[nH]c3ccccc13)C(=O)N1CCC[C@H]1C(=O)N[C@@H](C(C)C)C(=O)N2,IC50,R1,2730 nM
same,IC50,CCRF-CEM,2730 nM
same,IC50,U-937/GTB,2730 nM
same,IC50,[3],2730 nM
same,HC50,[6],50 µM
same,IC50,ACHN,2730 nM
same,IC50,[4],2730 nM
same,IC50,U-937,2730 nM
same,IC50,RPMI-8226,2730 nM
same,IC50,[5],2730 nM
CC(C)C[C@@H]1NC(=O)CNC(=O)[C@H](CC(N)=O)NC(=O)[C@H](C)NC(=O)[C@H]([C@@H](C)O)NC(=O)[C@@H]2CSSC[C@@H]3NC(=O)[C@H]([C@@H](C)O)NC(=O)CNC(=O)CNC(=O)[C@H](C(C)C)NC(=O)[C@@H]4CSSC[C@H](NC(=O)[C@H](CO)NC(=O)[C@H](CSSC[C@H](NC(=O)[C@H](C(C)C)NC(=O)[C@@H]5CCCN5C1=O)C(=O)NCC(=O)N[C@@H](CCC(=O)O)C(=O)N[C@@H]([C@@H](C)O)C(=O)N4)NC(=O)CNC(=O)[C@@H]1CCCN1C(=O)[C@H]([C@@H](C)O)NC(=O)[C@H](CC(N)=O)NC3=O)C(=O)N[C@@H](CO)C(=O)N[C@@H](CCCNC(=N)N)C(=O)N1CCC[C@H]1C(=O)N[C@@H](C(C)C)C(=O)N2 [VIOLAPEPTIDE 1],HC50,[6],50 µM
"CC[C@H](C)[C@@H]1NC(=O)[C@H](CCSC)NC(=O)[C@H](C)NC(=O)[C@@H]2CSSC[C@@H]3NC(=O)[C@H](CO)NC(=O)[C@@H]4CSSC[C@H](NC(=O)[C@H](CO)NC(=O)[C@H]([C@@H](C)CC)NC(=O)[C@H](CO)NC(=O)[C@H](CC(N)=O)NC(=O)[C@H](CC(C)C)NC(=O)[C@H](Cc5ccc(O)cc5)NC(=O)[C@H](CSSC[C@H](NC(=O)[C@H](Cc5ccccc5)NC(=O)[C@H](CO)NC1=O)C(=O)N[C@@H](Cc1ccccc1)C(=O)N[C@@H]([C@@H](C)O)C(=O)N[C@@H](CCC(=O)O)C(=O)N[C@@H](C(C)C)C(=O)N[C@@H]([C@@H](C)CC)C(=O)NCC(=O)N4)NC(=O)[C@H](C(C)C)NC(=O)[C@H](CCCCN)NC(=O)[C@H](CC(N)=O)NC(=O)[C@H](CCCCN)NC3=O)C(=O)NCC(=O)N[C@@H](CCC(=O)O)C(=O)N[C@@H](CO)C(=O)N2 (cyclo(AMISFCFTEVIGCSCKNKVCYLNSISCGESC); disulfide 6-20, 13-27, 15-31)",EC50,[7],870 nM
"CC[C@H](C)[C@@H]1NC(=O)[C@@H]2CCCN2C(=O)[C@H](Cc2ccc(O)cc2)NC(=O)[C@H](CO)NC(=O)[C@@H]2CSSC[C@@H]3NC(=O)[C@H]([C@@H](C)O)NC(=O)[C@H](CCC(=O)O)NC(=O)CNC(=O)[C@@H]4CSSC[C@H](NC(=O)CNC(=O)[C@@H]5CCCN5C(=O)[C@H]([C@@H](C)O)NC(=O)[C@H](Cc5ccc(O)cc5)NC(=O)[C@H](CSSC[C@H](NC1=O)C(=O)N[C@@H](CCCCN)C(=O)N[C@@H](CCCCN)C(=O)N[C@@H](CC(N)=O)C(=O)NCC(=O)N[C@@H](CC(C)C)C(=O)N[C@@H](C(C)C)C(=O)N1CCC[C@H]1C(=O)N4)NC(=O)[C@H](CCCCN)NC(=O)CNC(=O)[C@H]([C@@H](C)O)NC(=O)[C@H](Cc1ccccc1)NC3=O)C(=O)N[C@@H](CO)C(=O)N2 [CYCLOVIOLACIN O15] (cyclo(CFTGKCYTPGCSCSYPICKKNGLVPCGET); disulfide 1-13, 6-18, 11-26)",Activity,[2],25 µM
